Source: patent publication US20170283440A1, “CARM1 INHIBITORS AND USES THEREOF” (Epizyme, Inc., priority 2014, published 2017)
Read-outs that look alike come from different tables or passages of the source.

What was measured:
[1] = test system: asymmetric di-methyl PABP1 in RKO cells; assay: RKO methylation assay (In Cell Western for asymmetric di-methyl PABP1); format: cell-based; details: 48 hours incubation, read-out: Cellular IC50
Description: RKO adherent cells were purchased from ATCC (American Type Culture Collection), Manassas, Va., USA. DMEM/Glutamax medium, penicillin-streptomycin, heat inactivated fetal bovine serum, 0.05% trypsin and D-PBS were purchased from Life Technologies, Grand Island, N.Y., USA. Odyssey blocking buffer, 800CW goat anti-rabbit IgG (H+L) antibody, and Licor Odyssey infrared scanner were purchased from Licor Biosciences, Lincoln, Nebr., USA. Asymmetric di-methyl PABP1 antibody was purchased from Cell Signaling Technology, Danvers, Mass., USA. Methanol was purchased from VWR, Franklin, Mass., USA. 10% Tween 20 was purchased from KPL, Inc., Gaithersburg, Md., USA. Paraformaldehyde (PFA) was purchased from EM Sciences. DRAQ5 was purchased from Biostatus Limited, Leicestershire, UK.
RKO adherent cells were maintained in growth medium (DMEM/Glutamax medium supplemented with 10% v/v heat inactivated fetal bovine serum and 100 units/mL penicillin-streptomycin) and cultured at 37° C. under 5% CO2.
Compound (100 nL) from a 96-well source plate was added directly to 384 well cell plate. Plates were incubated at 37° C., 5% CO2 for 48 hours. After two days of incubation, plates were brought to room temperature outside of the incubator for ten minutes and blotted on paper towels to remove cell media. Cells were fixed for 20 minutes at room temperature by adding 50 ul of 8% PFA followed by aspiration of supernatant with the Biotek EL406 plate washer. Cells were then permeabilized by addition of 50 μL of ice cold 100% methanol directly to each well and incubated for 30 min at room temperature. After 30 min, plates were transferred to a Biotek EL406 plate washer and washed 2 times with 100 μL per well of wash buffer (IX PBS). Next 60 μL per well of Odyssey blocking buffer (Odyssey Buffer with 0.1% Tween 20 (v/v)) were added to each plate and incubated 1 hour at room temperature. Blocking buffer was removed and 20 μL per well of primary antibody was added (asymmetric-methyl PABP1) diluted 1:400 in Odyssey buffer with 0.1% Tween 20 (v/v)) and plates were incubated overnight (16 hours) at 4° C. Plates were washed 5 times with 100 μL per well of wash buffer. Next 20 μL per well of secondary antibody was added (1:800 800CW goat anti-rabbit IgG (H+L) antibody, 1:2000 DRAQ5 in Odyssey buffer with 0.1% Tween 20 (v/v)) and incubated for 1 hour at room temperature. The plates were washed 5 times with 100 μL per well wash buffer then 2 times with 100 μL per well of water. Plates were allowed to dry at room temperature then imaged on the Licor Odyssey machine which measures integrated intensity at 700 nm and 800 nm wavelengths. Both 700 and 800 channels were scanned.
First, the ratio for each well was determined by:
Each plate included fourteen control wells of DMSO only treatment (minimum inhibition) as well as fourteen control wells for maximum inhibition treated with 20 μM of a reference compound. The average of the ratio values for each control type was calculated and used to determine the percent […] for each test well in the plate. Reference compound was serially diluted three-fold in DMSO for a total of nine test concentrations, beginning at 20 μM.
Percent inhibition was determined and IC50 curves were generated using triplicate wells per concentration of compound.

Human CARM1 (PRMT4) = biological target: T1, Human CARM1 (PRMT4) (Homo sapiens, UniProt Q86X55); assay: CARM1 enzyme assay on peptide substrate (3H-SAM Flashplate); format: biochemical; details: CARM1 0.25 nM, 3H-SAM 30 nM, peptide 250 nM; read-out: Biochem IC50
T1 construct: Flag-CARM1-His was eluted with 200 ug/ml FLAG peptide in buffer A; made in house; host or cells: HEK 293F cells infected with recombinant baculovirus (pFastBacMam)
Description: S-adenosylmethionine (SAM), S-adenosylhomocysteine (SAH), bicine, Tween20, dimethylsulfoxide (DMSO), bovine skin gelatin (BSG), sodium butyrate and Tris(2-carboxyethyl)phosphine hydrochloride solution (TCEP) were purchased from Sigma-Aldrich at the highest level of purity possible. ^3H-SAM was purchase from American Radiolabeled Chemicals with a specific activity of 80 Ci/mmol. 384-well streptavidin Flashplates were purchased from PerkinElmer.
Peptide representative of human histone H3 residues 16-30 was synthesized with an N-terminal linker-affinity tag motif and a C-terminal amide cap by 21st Century Biochemicals. The peptide was purified by high-performance liquid chromatography (HPLC) to greater than 95% purity and confirmed by liquid chromatography mass spectrometry (LC-MS). The sequence was Biot-Ahx-[…]-amide and contained a monomethylated arginine at position 26 (SEQ ID NO.:1).
Human CARM1 (PRMT4) (NM_199141.1) transcript clone was amplified from an HEK 293 cDNA library, incorporating a flanking 5′ sequence encoding a FLAG tag ([…]) (SEQ ID NO.:2) fused directly to Ala 2 of CARM1 and 3′ sequence encoding a hexa His sequence ([…]) (SEQ ID NO.:3) fused directly to Ser 608. The gene sequence encoding isoform1 containing a deletion of amino acids 539-561 was amplified subsequently and subcloned into pFastBacMam (Viva Biotech).
Recombinant baculovirus were generated according to Bac-to-Bac kit instructions (Life Technologies). Protein over-expression was accomplished by infecting exponentially growing HEK 293F cell culture at 1.3×10^6 cell/ml with virus (MOI=10) in the presence of 8 mM sodium butyrate. Infections were carried out at 37° C. for 48 hours, harvested by centrifugation, and stored at −80° C. for purification.
Column was washed with 500 mM NaCl in buffer A and Flag-CARM1-His was eluted with 200 ug/ml FLAG peptide in buffer A. Pooled fractions were dialyzed in 20 mM Tris, 150 mM NaCl, 5% glycerol and 1 mM DTT, pH 7.8. The purity of recovered protein was 94.
The assays were all performed in a buffer consisting of 20 mM Bicine (pH=7.6), 1 mM TCEP, 0.005% BSG, and 0.002% Tween 20, prepared on the day of use. Compounds in 100% DMSO (1 ul) were spotted into a polypropylene 384-well V-bottom plates (Greiner) using a Platemate Plus outfitted with a 384-channel head (Thermo Scientific). DMSO (1 ul) was added to Columns 11, 12, 23, 24, rows A-H for the maximum signal control and 1 ul of SAH, a known product and inhibitor of CARM1, was added to columns 11, 12, 23, 24, rows I—P for the minimum signal control. A cocktail (40 ul) containing the CARM1 enzyme was added by Multidrop Combi (Thermo-Fisher). The compounds were allowed to incubate with CARM1 for 30 min at room temperature, then a cocktail (10 ul) containing ^3H-SAM and peptide was added to initiate the reaction (final volume=51 ul). The final concentrations of the components were as follows: CARM1 was 0.25 nM, ^3H-SAM was 30 nM, peptide was 250 nM, SAH in the minimum signal control wells was 1 mM, and the DMSO concentration was 2%. The assays were stopped by the addition of non-radiolabeled SAM (10 ul) to a final concentration of 300 uM, which dilutes the ^3H-SAM to a level where its incorporation into the peptide substrate is no longer detectable. 50 ul of the reaction in the 384-well polypropylene plate was then transferred to a 384-well Flashplate and the biotinylated peptides were allowed to bind to the streptavidin surface for at least 1 hour before being washed once with 0.1% Tween20 in a Biotek ELx405 plate washer. The plates were then read in a PerkinElmer TopCount plate reader to measure the quantity of ^3H-labeled peptide bound to the Flashplate surface, measured as disintegrations per minute (dpm) or alternatively, referred to as counts per minute (cpm).
where dpm=disintegrations per minute, cmpd=signal in assay well, and min and max are the respective minimum and maximum signal controls. […]

T1 sequence (Q86X55 other isoform, or with tags, fused parts or gaps): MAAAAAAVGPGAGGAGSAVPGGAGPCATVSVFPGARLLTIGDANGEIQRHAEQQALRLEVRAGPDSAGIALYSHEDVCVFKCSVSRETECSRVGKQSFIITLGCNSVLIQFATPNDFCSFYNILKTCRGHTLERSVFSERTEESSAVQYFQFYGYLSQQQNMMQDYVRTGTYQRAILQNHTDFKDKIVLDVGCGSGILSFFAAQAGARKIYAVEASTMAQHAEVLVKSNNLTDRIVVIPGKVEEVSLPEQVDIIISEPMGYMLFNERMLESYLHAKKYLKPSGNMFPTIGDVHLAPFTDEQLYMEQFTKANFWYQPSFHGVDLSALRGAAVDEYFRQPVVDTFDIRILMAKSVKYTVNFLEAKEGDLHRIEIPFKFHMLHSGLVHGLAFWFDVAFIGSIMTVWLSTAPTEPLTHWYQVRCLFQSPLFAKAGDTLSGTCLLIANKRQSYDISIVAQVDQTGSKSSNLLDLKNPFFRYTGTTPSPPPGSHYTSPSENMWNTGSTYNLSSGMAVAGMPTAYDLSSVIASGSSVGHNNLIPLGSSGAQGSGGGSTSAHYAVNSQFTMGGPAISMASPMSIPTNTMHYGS

Row | SMILES | IC50 ([1]; Homo sapiens) [µM] | IC50 (Human CARM1 (PRMT4)) [µM] | IC50 [1] [µM]
1 | CC(C)n1ncc2c(N[C@@H]3CO[C@H]4OCC[C@H]43)cc(-c3cccc(OCC(O)CN)c3)nc21 (stereo partly drawn) [Example 5-8] | > 20 | < 0.1 | –
2 | CNCC(O)COc1cc(OC)cc(-c2cc(-c3cnc4[nH]ccc4c3)c3cnn(C(C)C)c3n2)c1 (stereo not drawn) [Example 5-9] | > 20 | < 0.1 | –
3 | CNCC(O)COc1cccc(-c2cc(N(C)C3CCOCC3)c3c(C)nn(C(C)C)c3n2)c1 (stereo not drawn) [Example 6-2] | 10 to 20 | < 0.1 | –
4 | CNCC(O)COc1cc(O)cc(-c2cc(N3CCOCC3)c3cnn(C(C)C)c3n2)c1 (stereo not drawn) [Example 6-4] | > 20 | < 0.1 | –
5 | CC(C)n1ncc2c(N3CCOCC3)nc(-c3cccc(OCC(O)CN)c3)nc21 (stereo not drawn) [Example 6-5] | > 20 | < 0.1 | –
6 | CC(C)n1ncc2c(N[C@@H]3CO[C@H]4OCC[C@H]43)cc(-c3cccc(OCC(O)CN)c3)nc21 (stereo partly drawn) [Example 6-8] | – | < 0.1 | > 20
7 | CNCC(O)COc1cccc(-c2cc(NCc3c(C)cc(C)nc3OC)c3cnn(C(C)C)c3n2)c1 (stereo not drawn) [Example 6-9] | > 20 | < 0.1 | –
8 | CNCC(O)COc1cc(N)cc(-c2cc(NC3CCOCC3)c3cnn(C(C)C)c3n2)c1 (stereo not drawn) [Example 7-4] | > 20 | < 0.1 | –
9 | CC(C)n1ncc2c(NC3CCOC3)nc(-c3cccc(OCC(O)CN)c3)nc21 (stereo not drawn) [Example 7-5] | > 20 | < 0.1 | –
10 | CNCC(O)COc1cccc(-c2cc(N3CCOCC3)n3ncc(C(C)C)c3n2)c1 (stereo not drawn) [Example 7-6] | > 20 | 0.1 to 1 | –
11 | CC(C)n1ncc2c(N3CCOCC3)cc(-c3cc(F)cc(OCC(O)CN)c3)nc21 (stereo not drawn) [Example 7-8] | > 20 | < 0.1 | –
12 | CNCC(O)COc1cccc(-c2nc(N3CC4CCC(C3)O4)c3cnn(C4CC4)c3n2)c1 (stereo not drawn) [Example 7-9] | 10 to 20 | < 0.1 | –
13 | CNCC(O)COc1cc(OC)cc(-c2cc(N3CCOCC3)c3cnn(C(C)C)c3n2)c1 (stereo not drawn) [Example 8-4] | 10 to 20 | < 0.1 | –
14 | CNCC(O)COc1cccc(-c2nc(N3CCOCC3)c3cnn(C(C)C)c3n2)c1 (stereo not drawn) [Example 8-5] | 10 to 20 | < 0.1 | –
15 | CNC[C@@H](O)COc1cccc(-c2cc(N3CCOCC3)n3ncc(C(C)C)c3n2)c1 [Example 8-6] | > 20 | < 0.1 | –
16 | CNCC(O)COc1cccc(-c2nc(NCc3cnn(C)c3)c3cnn(C(C)(C)C)c3n2)c1 (stereo not drawn) [Example 8-8] | > 20 | < 0.1 | –
17 | CNCC(O)COc1cccc(-c2nc(NCc3nccs3)c3cnn(C4CC4)c3n2)c1 (stereo not drawn) [Example 8-9] | 10 to 20 | 0.1 to 1 | –
18 | CNCC(O)COc1cc(Cl)cc(-c2cc(NC3CCOC3)c3cnn(C(C)C)c3n2)c1 (stereo not drawn) [Example 9-4] | > 20 | < 0.1 | –
19 | CC(C)(C)n1ncc2c(N3CCOCC3)nc(-c3cccc(OCC(O)CN)c3)nc21 (stereo not drawn) [Example 9-5] | > 20 | < 0.1 | –
20 | CNC[C@H](O)COc1cccc(-c2cc(N3CCOCC3)n3ncc(C(C)C)c3n2)c1 [Example 9-6] | > 20 | < 0.1 | –
21 | CC(C)c1cnn2c(N3CCOCC3)cc(-c3cccc(OC[C@@H](O)CN)c3)nc12 [Example 9-8] | > 20 | < 0.1 | –
22 | CNCC(O)COc1cc(Cl)cc(-c2cc(N(C)C3CCOCC3)n3ncc(C(C)(C)C)c3n2)c1 (stereo not drawn) [Example 9-9] | > 20 | 0.1 to 1 | –

Second part, the compound after the results:

Row | IC50 ([1]; Homo sapiens) [µM] | IC50 (Human CARM1 (PRMT4)) [µM] | IC50 [1] [µM] | SMILES
23 | > 20 | < 0.1 | – | CNCC(O)COc1cc(OC)cc(-c2cc(Nc3cncnc3)c3cnn(C(C)C)c3n2)c1 (stereo not drawn) [Example 10-4]
24 | 10 to 20 | < 0.1 | – | CNCC(O)COc1cccc(-c2nc(NC3CCOC3)c3cnn(C(C)C)c3n2)c1 (stereo not drawn) [Example 10-5]
25 | > 20 | < 0.1 | – | CNCC(O)COc1cccc(-c2cc(N[C@H]3CCOC3)n3ncc(C(C)C)c3n2)c1 (stereo partly drawn) [Example 10-6]
26 | > 20 | < 0.1 | – | CC(C)c1cnn2c(N3CCOCC3)cc(-c3cccc(OC[C@H](O)CN)c3)nc12 [Example 10-8]
27 | > 20 | 0.1 to 1 | – | CN(c1cc(-c2cccc(OCC(O)CN)c2)nc2c(C(C)(C)C)cnn12)C1CCOCC1 (stereo not drawn) [Example 10-9]
28 | > 20 | 0.1 to 1 | – | CNCC(O)COc1cc(C#N)cc(-c2cc(NC3CCOCC3)c3cnn(C(C)C)c3n2)c1 (stereo not drawn) [Example 11-4]
29 | > 20 | 0.1 to 1 | – | NCC(O)COc1cccc(-c2nc(NCc3cccnc3)c3cnn(C4CC4)c3n2)c1 (stereo not drawn) [Example 11-5]
30 | > 20 | < 0.1 | – | CNCC(O)COc1cccc(-c2cc(N[C@@H]3CCOC3)n3ncc(C(C)C)c3n2)c1 (stereo partly drawn) [Example 11-6]
31 | > 20 | 0.1 to 1 | – | CC(C)c1cnn2c(N(C)C3CCOCC3)cc(-c3cccc(OCC(O)CN)c3)nc12 (stereo not drawn) [Example 11-8]
32 | > 20 | 0.1 to 1 | – | CNCC(O)COc1cccc(-c2cc(NC(=O)NC)c3cnn(C(C)C)c3n2)c1 (stereo not drawn) [Example 11-9]
33 | > 20 | 0.1 to 1 | – | CNCC(O)COc1cc(-c2cc(N3CCOCC3)c3cnn(C(C)C)c3n2)cc(C2CC2)c1 (stereo not drawn) [Example 12-4]
